Experimental data taken from ChEMBL document CHEMBL1131796, “Design and synthesis of a novel synthetic NAPAP-penta-saccharide conjugate displaying a dual antithrombotic action” (Bioorg Med Chem Lett, 1999).

What was measured:
Antithrombin-III [1] = biological target: T1, Antithrombin-III (Homo sapiens, UniProt P01008); test: (§1) Antithrombin III (ATIII)-mediated anti-Xa activity was determined
Antithrombin-III [2] = biological target: T1, Antithrombin-III; test: as §1; remark: listed apart in the source
Prothrombin = Prothrombin (Homo sapiens, UniProt P00734); test: In vitro anti-thrombin activity was determined
Antithrombin-III [3] = biological target: T1, Antithrombin-III; test: In vitro antithrombin III (ATIII)-mediated anti-Xa activity was determined
[4] = In vitro half life in rat; conditions: in vivo

T1 sequence (P01008 whole entry): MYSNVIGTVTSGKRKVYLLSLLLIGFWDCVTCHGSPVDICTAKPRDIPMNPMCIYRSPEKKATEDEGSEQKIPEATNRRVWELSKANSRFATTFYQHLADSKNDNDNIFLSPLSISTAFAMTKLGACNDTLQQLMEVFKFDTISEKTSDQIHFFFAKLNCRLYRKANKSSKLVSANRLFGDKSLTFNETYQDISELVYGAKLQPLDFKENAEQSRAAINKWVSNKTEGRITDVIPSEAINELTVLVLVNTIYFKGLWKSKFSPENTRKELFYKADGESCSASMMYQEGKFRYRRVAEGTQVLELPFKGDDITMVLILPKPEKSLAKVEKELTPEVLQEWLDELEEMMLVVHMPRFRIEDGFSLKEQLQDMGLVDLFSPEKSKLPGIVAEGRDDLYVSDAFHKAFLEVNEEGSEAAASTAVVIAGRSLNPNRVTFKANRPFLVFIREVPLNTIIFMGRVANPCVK

CO[C@@H]1OC(COS(=O)(=O)O)[C@H](O[C@@H]2OC(C(=O)O)[C@H](O[C@@H]3OC(COS(=O)(=O)O)[C@H](O[C@@H]4OC(C(=O)O)[C@H](O[C@@H]5OC(COS(=O)(=O)O)[C@@H](O)[C@@H](OS(=O)(=O)O)C5OS(=O)(=O)O)[C@@H](OC)C4OS(=O)(=O)O)[C@@H](OS(=O)(=O)O)C3OS(=O)(=O)O)[C@@H](OC)C2OS(=O)(=O)O)[C@@H](OS(=O)(=O)O)C1OS(=O)(=O)O (stereo not given in full)
Activity (Antithrombin-III [1]): 1160 U mg-1

N=C(N)c1ccc(C[C@@H](NC(=O)CNS(=O)(=O)c2ccc3ccccc3c2)C(=O)N2CCCCC2)cc1
IC50 (Antithrombin-III [2]): 570 nM

CO[C@H]1O[C@H](COS(=O)(=O)O)[C@@H](O[C@@H]2O[C@@H](C(=O)O)[C@@H](O[C@H]3O[C@H](COS(=O)(=O)O)[C@@H](O[C@@H]4O[C@H](C(=O)O)[C@@H](O[C@H]5O[C@H](COS(=O)(=O)O)[C@@H](OCCOCCOCCOCCNC(=O)c6ccc(NC(=O)CSC[C@H](NS(=O)(=O)c7ccc8ccccc8c7)C(=O)NC(Cc7ccc(C(=N)N)cc7)C(=O)N7C=CCCC7)cc6)[C@H](OS(=O)(=O)O)[C@H]5OS(=O)(=O)O)[C@H](OC)[C@H]4OS(=O)(=O)O)[C@H](OS(=O)(=O)O)[C@H]3OS(=O)(=O)O)[C@H](OC)[C@H]2OS(=O)(=O)O)[C@H](OS(=O)(=O)O)[C@H]1OS(=O)(=O)O (stereo not given in full)
IC50 (Prothrombin): 350 nM | Activity (Antithrombin-III [3]): 885 U mg-1 | half-life [4]: 1.5 h
